Assay results as given in publication PMC5913603, “Structure–activity relationships of strigolactones via a novel, quantitative in planta bioassay” (Journal of Experimental Botany, 2018).

Columns and labels:
[1] = target: T1, AtD14 fused to firefly luciferase (D14::LUC) (Arabidopsis thaliana, UniProt Q9SQR3); experiment: Luminometer (luciferase) assay: D14::LUC degradation in transgenic Arabidopsis seedlings; assay type: in vivo; conditions: for D14 degradation in the luciferase assay: 0.01–100 μM range, racemic mixtures
T1 construct: a pDONOR207 carrying the D14 promoter fused to the D14 CDS; expressed in transfected cells
T1 sequence (Q9SQR3 1-267): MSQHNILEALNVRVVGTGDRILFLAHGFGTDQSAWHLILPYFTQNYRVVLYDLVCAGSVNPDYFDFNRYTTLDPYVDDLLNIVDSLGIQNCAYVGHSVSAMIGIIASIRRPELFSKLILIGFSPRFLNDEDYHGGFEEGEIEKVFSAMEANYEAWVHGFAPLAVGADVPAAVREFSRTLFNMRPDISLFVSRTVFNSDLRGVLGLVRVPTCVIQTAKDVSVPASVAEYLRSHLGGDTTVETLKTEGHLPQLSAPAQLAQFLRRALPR
Protocol: A binary D14p::D14::LUC vector was obtained by LR-recombination (Invitrogen) of a pDONOR207 carrying the D14 promoter fused to the D14 CDS ([Chevalier et al., 2014]) in pGWB435 ([Nakagawa et al., 2007]). Transgenic D14::D14::LUC Arabidopsis plants were generated by agroinfiltration of Col-0 plants using the floral dip method ([Clough and Bent, 1998]). Seeds were surface-sterilized with an 8% aqueous solution of commercial bleach in distilled water for 5 min and rinsed five times with sterile distilled water. Sterile seeds were plated on MS medium (pH 5.8) ([Murashige and Skoog, 1962]) without sucrose solidified with 1.2% Agar, and kept at 4 °C for 3 d (stratification). Seeds were then incubated for 7 d in a growth chamber at 25 °C and a photoperiod of 16 h light/8 h dark. SL analogues and mimics (Figs 1, 2) were accurately weighed and dissolved in acetone at 10^–2 M. Five different concentrations (10^–4 M, 10^–5 M, 10^–6 M, 10^–7 M, 10^–8 M) were prepared by 1:10 serial dilutions in liquid MS medium, together with blank controls containing corresponding water and acetone volumes in the medium. D-Luciferin (potassium salt) stock was prepared at 25 mg ml^–1 in DMSO, aliquoted and stored at –80 °C until use; all other solutions were prepared just before the assay. Using tweezers, 7-d-old Arabidopsis seedlings were placed in a 96-well microtiter plate with their cotyledons facing up (one seedling per well, in 170 µl of liquid MS medium), and 15 µl of luciferin (0.125 mg ml^–1, diluted 1:200 in MS from stock) was added to each well, corresponding to 1.875 µg. The plate was covered with a transparent film with a hole poked above each well to allow for gas exchange. Measurements were taken every 15 min in a multimode reader (LB942 Tristar2 S, Berthold Technologies) for the following 24 h; the signal was allowed to stabilize for 2–3 h in the light before treatments were started by adding 15 µl per well of the different SLs in MS medium, thus reaching a final volume in each well of 200 µl and 9.4 µg ml^– of luciferin. Appropriate blank controls were added as well. Each treatment was applied to a minimum of 16 wells (seedlings), each of which was measured individually over time. The percentage efficacy of each compound molecule was calculated 6 h after treatment as a function of the decrease in D14::LUC-emitted luminescence with respect to (+)-GR24 1 µM (i.e. GR24^5DS), assuming that the latter, minus the drift of the corresponding blank control, had 100% efficacy. For calibration purposes, SL analogues that had already been characterized, namely (±)-ST23b, (±)-EGO10, and (±)-EDOT ([Prandi et al., 2011]), were tested across the same concentration range, along with (±)-strigol (Chiralix, NL). The half maximal-effective concentration (EC50) for (+)-GR24 was calculated by linear regression fitting of the data (n=5, with at least three individual seedlings and values being pooled for each replicate) at the different concentrations, minus the values for acetone-treated samples (negative controls) and normalized in relation to (+)-GR24 0.01 μM, which was set to 0%. Confidence intervals at 95% were used to express errors of the means.
D14 is a target for proteasome-dependent destruction upon interaction with its ligand(s), which explains why fluorescence of D14::GFP fusion proteins is quenched upon SL treatment in transgenic Arabidopsis ([Chevalier et al., 2014]). We exploited this molecular network to implement a quantitative activity assay that inversely correlated luminescence to perception of SL-related molecules in transgenic Arabidopsis expressing D14::LUC under the control of the D14 endogenous promoter. […] We then used the assay to test various SLs in the same range, namely strigol as an example of natural SLs; ST23b, EGO10, and EDOT (Fig. 1, all used as rac mixtures) as examples of active SL analogues; and the new set of SL-D-lactams rac-1–9 (Fig. 2).
Fig. 4. Luciferase assay. […]

[2] = tested on: Phelipanche aegyptiaca seeds; experiment: Germination-inducing activity on parasitic seeds; assay type: in vivo; conditions: for Fold lower potency than rac-GR24 (germination): compared with rac-GR24
Protocol: Seeds of Phelipanche aegyptiaca were collected from field-grown tomato in the West Galilee region of Israel. The seeds were stored in glass vials in the dark at room temperature until their use in germination tests. For the preparation of test solutions, the compound to be tested was weighed out very accurately, dissolved in acetone at 10^–2 M and then diluted with sterile distilled water to the desired concentrations. All solutions were prepared just before use. Seeds were surface-sterilized and preconditioned as described by [Bhattacharya et al. (2009)]. Briefly, after exposure for 5 min to 50% (v/v) aqueous solutions of commercial bleach (2% hypochlorite), seeds were rinsed with sterile distilled water. For preconditioning, seeds were placed on glass fibre filter discs using a sterile toothpick (approximately 50 seeds per disc); the glass fibre discs were placed on two filter paper discs, wetted with sterile distilled water, and incubated at 25 °C in the dark for 6 d. The preconditioned seeds were then allowed to dry completely in a laminar flow cabinet, after which they were treated with each compound at five different concentrations: 10^–5 M, 10^–6 M, 10^–7 M, 10^–8 M, and 10^–9 M. Their germination rate was evaluated under a stereomicroscope 7 d after the beginning of the treatment. For each concentration, at least 250 seeds were scored; synthetic SL rac-GR24 was included as a positive control across the same range of concentrations, while a solution of 0.001% acetone in sterile distilled water was included as a negative control. Seeds were scored as germinated if the radicle protruded through the seed coat 1 week after treatment. Germination values were normalized to those of rac-GR24 at 10^–7 M.
Fig. 3. Germination-inducing activity on Phelipanche aegyptiaca seeds of rac-1–9 and of strigol, ST23b, EGO10, and EDOT at different concentrations, compared to rac-GR24 0.1 μM as a positive control and to acetone as a negative control. […] The x-axis indicates the range of concentrations. Data are means (±SD) of n>250 seeds. Confidence intervals at 95% are used to express errors of the means. The data for rac-1–9 are indicated by ‘D-lactams’.

D14 degradation in the luciferase assay [1] | Activity in the luciferase assay at 10 μM ([1]; 10 μM) | Activity in the luciferase assay at 100 μM ([1]; 100 μM) | SMILES | Fold lower potency than rac-GR24 (germination) [2] | Concentration at which high germination activity was shown ([2]; high activity only at this concentration, germination normalized to rac-GR24 0.1 μM) [µM] | Germination activity at 10 μM ([2]; 10 μM) | Germination efficiency at 1 μM ([2]; 1 μM) | Concentration at which some germination activity could still be detected ([2]; tested 10^-9 to 10^-5 M) [µM]
almost inactive | – | – | CC1=C[C@H](O/C=C2/C(=O)O[C@@H]3c4ccccc4C[C@H]23)NC1=O (racemic) [rac-3] | ~ 100 fold | 10 | – | – | –
substantially inactive | inactive | partial agonist | CC1=CC(C2Cc3c(n(C)c4ccccc34)C2=O)NC1=O (racemic) [rac-9] | – | – | inactive | – | –
weak activity | – | – | CC1=C[C@H](O/C=C2/C(=O)O[C@H]3c4ccccc4C[C@@H]23)NC1=O (racemic) [rac-4] | ~ 10 fold | – | – | efficiency comparable to GR24 | 1
